According to paper PMC10890666, “Targeted Affinity Purification and Mechanism of Action of Angiotensin-Converting Enzyme (ACE) Inhibitory Peptides from Sea Cucumber Gonads” (Marine Drugs, 2024):
Like-named read-outs stand apart in the source and are kept apart here.

Legend:
[1] = target: angiotensin-converting enzyme (ACE); conditions: cited from earlier work; for IC50: read-out: IC50 (ACE inhibition)
From the text: The immobilization of ACE using various immobilization media is a promising affinity purification method to obtain shorter peptides from diverse sources. […] Feng et al. used a novel affinity medium Fe3O4@ZIF-90 and combined this method with reversed-phase high-performance liquid chromatography (RP-HPLC) and MALDI-TOF mass spectrometry to purify ... || Collectively, low-molecular-weight fractions isolated from SCGHs using the ultrafiltration method allowed us to obtain small peptides with potent ACE inhibitory activity. ACE inhibitory molecules are typically characterized by their small and short-chain peptide structures. In this study, a combination of ultrafiltration separation and SCGH effectively eliminated substances above 3 kDa. We further isolated the active components by utilizing an ACE enzyme affinity column, which facilitated the removal of other nonspecifically bound substances and yielded the target peptides. […] For instance, the experimentally purified short peptide DDQYHIF features Phe at the C-terminus, while HDWWKER has basic amino acids Arg and His at the C- and N-termini, respectively. Sun et al. reported that peptides with Arg at the C-termi ...

[2] = target: T1, angiotensin-I-converting enzyme (ACE) (UniProt P12822 34-1260); assay: cell-based or functional assay
T1 sequence (looked up): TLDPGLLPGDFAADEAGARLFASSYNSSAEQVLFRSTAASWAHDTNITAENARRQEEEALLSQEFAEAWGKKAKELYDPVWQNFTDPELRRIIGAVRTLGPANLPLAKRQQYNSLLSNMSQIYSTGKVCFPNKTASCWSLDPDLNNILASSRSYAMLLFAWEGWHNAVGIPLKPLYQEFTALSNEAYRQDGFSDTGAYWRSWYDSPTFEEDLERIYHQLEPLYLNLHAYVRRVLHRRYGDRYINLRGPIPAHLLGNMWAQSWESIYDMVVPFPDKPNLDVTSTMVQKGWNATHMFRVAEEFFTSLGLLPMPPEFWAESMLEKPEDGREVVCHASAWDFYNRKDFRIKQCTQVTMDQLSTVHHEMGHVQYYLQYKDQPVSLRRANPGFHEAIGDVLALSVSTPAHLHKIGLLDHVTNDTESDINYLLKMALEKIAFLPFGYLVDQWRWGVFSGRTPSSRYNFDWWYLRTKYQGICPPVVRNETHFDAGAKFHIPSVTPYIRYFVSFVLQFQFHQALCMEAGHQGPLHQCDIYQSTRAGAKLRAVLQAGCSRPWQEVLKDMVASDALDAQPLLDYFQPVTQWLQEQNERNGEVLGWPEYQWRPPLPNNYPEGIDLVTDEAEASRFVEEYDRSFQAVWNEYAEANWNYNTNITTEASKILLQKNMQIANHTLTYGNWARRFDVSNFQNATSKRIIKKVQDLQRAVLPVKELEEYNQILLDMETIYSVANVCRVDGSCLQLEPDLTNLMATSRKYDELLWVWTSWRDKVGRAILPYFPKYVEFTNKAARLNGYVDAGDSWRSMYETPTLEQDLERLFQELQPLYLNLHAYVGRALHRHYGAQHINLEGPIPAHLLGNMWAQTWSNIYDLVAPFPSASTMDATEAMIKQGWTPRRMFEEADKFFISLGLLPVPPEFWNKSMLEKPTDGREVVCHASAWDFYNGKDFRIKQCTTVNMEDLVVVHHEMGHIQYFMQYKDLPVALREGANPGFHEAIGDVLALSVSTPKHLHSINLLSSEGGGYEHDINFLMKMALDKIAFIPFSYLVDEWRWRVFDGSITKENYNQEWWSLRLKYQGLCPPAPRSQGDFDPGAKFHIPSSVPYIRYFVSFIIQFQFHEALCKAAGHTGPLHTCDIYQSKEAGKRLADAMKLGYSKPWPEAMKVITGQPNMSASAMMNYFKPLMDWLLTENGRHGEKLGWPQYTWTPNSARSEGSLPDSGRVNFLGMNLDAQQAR

[3] = from Ulva intestinalis, ref [32]

EIYR
IC50 ([1]; from sea cucumber gonads, ref Zhong et al. (2018)): 348 µM

FGMPLDR
IC50 [1, 3]: 219 µM

GMKCA
ACE inhibition (in words) ([1]; ref [9]): ACE inhibitory peptide
IC50 ([1]; ref [9]): 45.7 µM

KNFL
ACE inhibition (in words) ([1]; from Undaria pinnatifida, ref [8]): ACE inhibitory peptide

LLYQEPVLGPVR
ACE inhibition (in words) ([1]; from casein hydrolysate, ref [7]): potent ACE inhibitory peptide

MELVLR
IC50 [1, 3]: 237 µM

TLRFALHGME [novel peptide from Takifugu flavidus hydrolysate]
IC50 ([1]; from Takifugu flavidus hydrolysate, ref [17]): 93.5 µM

B1: THDWWKER (peptide)
peptide: THDWWKER
IC50 of ACE inhibition (HHL substrate, HPLC) [2]: 1290 µM

B2: HDWWKER (peptide)
peptide: HDWWKER
IC50 of ACE inhibition (HHL substrate, HPLC) [2]: 584 µM

B3: DDQYHIF (peptide)
peptide: DDQYHIF
IC50 of ACE inhibition (HHL substrate, HPLC) [2]: 334 µM
